# Measurements reported in patent publication US7718668B2, “Salts of 6-heterocycle substituted hexahydrophenanthridine derivatives” (Nycomed GmbH, priority 2005, dated 2010).
# Structures can show the parent of a compound that is named as a salt.
row,SMILES,melting point [°C]
1,"CCOc1cc2c(cc1OC)C(c1ccc(-n3cccn3)nc1)=N[C@@H]1CC[C@@H](O)C[C@H]21 (as salt: fumarate) [compound 3, (2R,4aR,10bR)-9-Ethoxy-8-methoxy-6-(6-pyrazol-1-yl-pyridin-3-yl)-1,2,3,4,4a, 10b-hexahydro-phenanthridin-2-ol]",170
2,"CCOc1cc2c(cc1OC)C(c1ccc(=O)n(C)c1)=N[C@@H]1CC[C@@H](O)C[C@H]21 (as salt: fumarate) [compound 9, 5-((2R,4aR,10bR)-9-Ethoxy-2-hydroxy-8-methoxy-1,2,3,4,4a, 10b-hexahydro-phenanthridin-6-yl)-1-methyl-1H-pyridin-2-one]",156
3,"CCOc1cc2c(cc1OC)C(c1ccc(OC)nc1)=N[C@@H]1CC[C@@H](O)C[C@H]21 (as salt: fumarate) [compound 10, (2R,4aR,10bR)-9-Ethoxy-8-methoxy-6-(6-methoxy-pyridin-3-yl)-1,2,3,4,4a, 10b-hexahydro-phenanthridin-2-ol]",173
4,"CCOc1cc2c(cc1OC)C(c1cnc(N(C)C)nc1OC)=N[C@@H]1CC[C@@H](O)C[C@H]21 (as salt: fumarate) [compound 11, (2R,4aR,10bR)-6-(2-Dimethylamino-4-methoxy-pyrimidin-5-yl)-9-ethoxy-8-methoxy-1,2,3,4,4a, 10b-hexahydro-phenanthridin-2-ol]",123
5,"CCOc1cc2c(cc1OC)C(c1cnc(OC)cc1OC)=N[C@@H]1CC[C@@H](O)C[C@H]21 (as salt: fumarate) [compound 12, (2R,4aR,10bR)-6-(4,6-Dimethoxy-pyridin-3-yl)-9-ethoxy-8-methoxy-1,2,3,4,4a, 10b-hexahydro-phenanthridin-2-ol]",194
6,"CCOc1cc2c(cc1OC)C(c1cnc(N(C)C)nc1)=N[C@@H]1CC[C@@H](O)C[C@H]21 (as salt: fumarate) [compound 13, (2R,4aR,10bR)-6-(2-Dimethylamino-pyrimidin-5-yl)-9-ethoxy-8-methoxy-1,2,3,4,4a, 10b-hexahydro-phenanthridin-2-ol]",210
7,"CCOc1cc2c(cc1OC)C(c1ccc(OC)nc1OC)=N[C@@H]1CC[C@@H](O)C[C@H]21 (as salt: hydrobromid) [compound 8, (2R,4aR,10bR)-6-(2,6-Dimethoxy-pyridin-3-yl)-9-ethoxy-8-methoxy-1,2,3,4,4a, 10b-hexahydro-phenanthridin-2-ol]",163
8,"CCOc1cc2c(cc1OC)C(c1ccc(OC)nc1OC)=N[C@@H]1CC[C@@H](O)C[C@H]21 (as salt: hydrochloride) [compound 8, (2R,4aR,10bR)-6-(2,6-Dimethoxy-pyridin-3-yl)-9-ethoxy-8-methoxy-1,2,3,4,4a, 10b-hexahydro-phenanthridin-2-ol]",164
9,"CCOc1cc2c(cc1OC)C(c1ccc(OC)nc1OC)=N[C@@H]1CC[C@@H](O)C[C@H]21 (as salt: mesylate) [compound 8, (2R,4aR,10bR)-6-(2,6-Dimethoxy-pyridin-3-yl)-9-ethoxy-8-methoxy-1,2,3,4,4a, 10b-hexahydro-phenanthridin-2-ol]",193
10,"CCOc1cc2c(cc1OC)C(c1ccc(=O)n(C)c1)=N[C@@H]1CC[C@@H](O)C[C@H]21 (as salt: tartrate) [compound 9, 5-((2R,4aR,10bR)-9-Ethoxy-2-hydroxy-8-methoxy-1,2,3,4,4a, 10b-hexahydro-phenanthridin-6-yl)-1-methyl-1H-pyridin-2-one]",205
11,"CCOc1cc2c(cc1OC)C(c1cnc(N(C)C)nc1OC)=N[C@@H]1CC[C@@H](O)C[C@H]21 (as salt: tartrate) [compound 11, (2R,4aR,10bR)-6-(2-Dimethylamino-4-methoxy-pyrimidin-5-yl)-9-ethoxy-8-methoxy-1,2,3,4,4a, 10b-hexahydro-phenanthridin-2-ol]",249
12,"CCOc1cc2c(cc1OC)C(c1cnc(N(C)C)nc1)=N[C@@H]1CC[C@@H](O)C[C@H]21 (as salt: tartrate) [compound 13, (2R,4aR,10bR)-6-(2-Dimethylamino-pyrimidin-5-yl)-9-ethoxy-8-methoxy-1,2,3,4,4a, 10b-hexahydro-phenanthridin-2-ol]",206
13,"CCOc1cc2c(cc1OC)C(c1ccc(OC)nc1OC)=N[C@@H]1CC[C@@H](O)C[C@H]21 (as salt: tosylate) [compound 8, (2R,4aR,10bR)-6-(2,6-Dimethoxy-pyridin-3-yl)-9-ethoxy-8-methoxy-1,2,3,4,4a, 10b-hexahydro-phenanthridin-2-ol]",218
14,"CCOc1cc2c(cc1OC)C(c1cnc(OC)nc1)=N[C@@H]1CC[C@@H](O)C[C@H]21 [compound 4, (2R,4aR,10bR)-9-Ethoxy-8-methoxy-6-(2-methoxy-pyrimidin-5-yl)-1,2,3,4,4a, 10b-hexahydro-phenanthridin-2-ol]",124
15,"CCOc1cc2c(cc1OC)C(c1ccc(=O)n(C)c1)=N[C@@H]1CC[C@@H](O)C[C@H]21 [compound 9, 5-((2R,4aR,10bR)-9-Ethoxy-2-hydroxy-8-methoxy-1,2,3,4,4a, 10b-hexahydro-phenanthridin-6-yl)-1-methyl-1H-pyridin-2-one]",147
16,"CCOc1cc2c(cc1OC)C(c1cnc(N(C)C)nc1OC)=N[C@@H]1CC[C@@H](O)C[C@H]21 [compound 11, (2R,4aR,10bR)-6-(2-Dimethylamino-4-methoxy-pyrimidin-5-yl)-9-ethoxy-8-methoxy-1,2,3,4,4a, 10b-hexahydro-phenanthridin-2-ol]",124
17,"CCOc1cc2c(cc1OC)C(c1cnc(N(C)C)nc1)=N[C@@H]1CC[C@@H](O)C[C@H]21 [compound 13, (2R,4aR,10bR)-6-(2-Dimethylamino-pyrimidin-5-yl)-9-ethoxy-8-methoxy-1,2,3,4,4a, 10b-hexahydro-phenanthridin-2-ol]",112
